Reference: the NIST ThermoML archive (doi:10.1016/j.jct.2016.11.002)
Where “and” joins values, the source holds several entries; their conditions need not be identical. Equal entries are not always repeated.

What was measured:
[1] = refractive index (Na D-line) (dimensionless); details: 100 kPa, Liquid, Standard Abbe refractometry
[2] = 100 kPa, Liquid; for speed of sound: Frequency=3 MHz, Single path-length method; for mass density: Vibrating tube method
[3] = refractive index (Na D-line) (dimensionless); xn = mol fraction of the nth substance listed; details: 100 kPa, Liquid, Standard Abbe refractometry, x1 = 1
[4] = xn = mol fraction of the nth substance listed; details: 100 kPa, Liquid, x1 = 1; for speed of sound: Frequency=3 MHz, Single path-length method; for mass density: Vibrating tube method

CCOCCO [2-ethoxyethan-1-ol]
Details | mass density, [2] [kg/m3] | refractive index, [1] | speed of sound, [2]
298.15 K | 925.54 | 1.4055 | 1302.8 m/s
303.15 K | 920.99 | 1.4042 | 1285 m/s
308.15 K | 916.41 | 1.4028 | 1267.3 m/s
313.15 K | 911.8 | 1.4016 | 1249.6 m/s
318.15 K | 907.15 | 1.4001 | 1232 m/s and 1231.5 m/s
323.15 K | 902.46 | 1.3988 | 1214.3 m/s

CCOC(=O)OCC [diethyl carbonate] + CCOCCO
Details | mass density, [4] [kg/m3] | refractive index, [3] | speed of sound, [4] [m/s]
298.15 K | 969.1 | 1.3825 | 1177.5
303.15 K | 963.47 | 1.3802 | 1156.9
308.15 K | 957.81 | 1.3779 | 1136.6
313.15 K | 952.13 | 1.3756 | 1116.5
318.15 K | 946.43 | 1.3733 | 1096.5
323.15 K | 940.69 | 1.371 | 1076.7

CCOC(=O)OCC [diethyl carbonate] + CCCOCCO
Details | mass density, [4] [kg/m3] | refractive index, [3] | speed of sound, [4] [m/s]
298.15 K | 969.1 | 1.3825 | 1177.5
303.15 K | 963.47 | 1.3802 | 1156.9
308.15 K | 957.81 | 1.3779 | 1136.6
313.15 K | 952.13 | 1.3756 | 1116.5
318.15 K | 946.43 | 1.3733 | 1096.5
323.15 K | 940.69 | 1.371 | 1076.7

CCOC(=O)OCC [diethyl carbonate] + COCCO
Details | mass density, [4] [kg/m3] | refractive index, [3] | speed of sound, [4] [m/s]
298.15 K | 969.1 | 1.3825 | 1177.5
303.15 K | 963.47 | 1.3802 | 1156.9
308.15 K | 957.81 | 1.3779 | 1136.6
313.15 K | 952.13 | 1.3756 | 1116.5
318.15 K | 946.43 | 1.3733 | 1096.5
323.15 K | 940.69 | 1.371 | 1076.7

COCCO [2-methoxyethan-1-ol]
Details | mass density, [2] [kg/m3] | refractive index, [1] | speed of sound, [2] [m/s]
298.15 K | 960.32 | 1.4001 | 1342.1
303.15 K | 955.71 | 1.3981 | 1324.7
308.15 K | 951.08 | 1.3961 | 1307.4
313.15 K | 946.42 | 1.3943 | 1290
318.15 K | 941.72 | 1.3922 | 1272.7
323.15 K | 936.89 | 1.3902 | 1255.4
